The values that follow come from US12384753B2, “17-beta-hydroxysteroid dehydrogenase type 13 inhibitors and methods of use thereof” (Enanta Pharmaceuticals, Inc., priority 2021, dated 2025).

A value given as a limit tells only on which side of the number the result lay.

The target in this experiment is Recombinant human HSD17B13 (Homo sapiens (Human), UniProt Q7Z5P4). Briefly: HSD17B13 rapid-fire mass spectrometry assay (RF/MS assay). The experiment is classed as biochemical. Conditions: inhibition of HSD17B13; LTB4 10 μM, NAD+ 0.5 mM, RT 3 h; IC50 ranges A-E. The gist of the method: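 Sf9-expressed human HSD17B13 (80 nM) with 10 μM LTB4 and 0.5 mM NAD+, incubated with compound (0–100 μM) for 3 h at RT in Tris pH 7.5/BSA/Tween-20. After formic acid quench, LTB4 conversion to 12-oxo-LTB4 measured by RapidFire MS/MS. IC50 from normalised residual activity, duplicates.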
Chain of Recombinant human HSD17B13 (Q7Z5P4 20-300): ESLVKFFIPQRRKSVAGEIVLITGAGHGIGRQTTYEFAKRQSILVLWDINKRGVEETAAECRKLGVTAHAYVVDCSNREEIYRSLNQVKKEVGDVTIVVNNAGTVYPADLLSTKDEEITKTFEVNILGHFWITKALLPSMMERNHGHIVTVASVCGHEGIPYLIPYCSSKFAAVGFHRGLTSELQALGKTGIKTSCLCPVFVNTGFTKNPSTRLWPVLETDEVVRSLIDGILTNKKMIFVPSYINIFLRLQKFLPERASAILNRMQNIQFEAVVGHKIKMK
The IC50 is the midpoint of a concentration-inhibition curve. In the case of `COc1cc(C(=O)O)ccc1NS(=O)(=O)c1csc(C#Cc2cccc(C(F)(F)F)c2)n1` [Example 202], the concentration for half-maximal inhibition (IC50) was under 100 nM. For `COc1cc(C(=O)O)ccc1NS(=O)(=O)c1csc(-c2cccc(C)c2)n1` [Example 124] the value was 500 to 1000 nM; for `CCc1cc(C2CCC(C)(C)CC2)ccc1-c1nc(S(=O)(=O)Nc2cc(F)c(C(=O)O)cc2OC)cs1` [Example 572], under 100 nM. The figure for `COc1cc(C(=O)O)c(F)cc1NS(=O)(=O)c1csc(-c2ccc(-c3cccc4[nH]ccc34)cc2)n1` [Example 647] is under 100 nM; for `COc1cc(C(=O)O)c(F)cc1NS(=O)(=O)c1coc(-c2ccc(C3=CCC(C(C)C)CC3)cc2C(F)(F)F)n1` (stereo not drawn) [Example 672] it is under 100 nM. With `COc1cc(C(=O)O)cc(F)c1NS(=O)(=O)c1csc(-c2ccc(C3CCC(C)(C)CC3)cc2C(F)(F)F)n1` [Example 671], the IC50 was under 100 nM.

Consider `COc1cc(C(=O)O)ccc1NS(=O)(=O)c1csc(-c2ccc(-c3ccccc3)cc2)n1` [Example 301], for which the IC50 was 500 to 1000 nM.

Consider `COc1cc(C(=O)O)c(F)cc1NS(=O)(=O)c1csc(-c2ccc([C@H]3CC[C@H](C(C)C)CC3)c(OC(C)C)c2F)n1` [Example 587], for which the IC50 was under 100 nM.

On to `COc1cc(C(=O)O)c(F)cc1NS(=O)(=O)c1csc(C#Cc2ccc(C(C)C)cc2)n1` [Example 241], for which the IC50 was under 100 nM.

As for `COc1cc(C(=O)O)c(F)cc1NS(=O)(=O)c1csc(-c2ccc(-c3ccc4cnccc4c3)cc2)n1` [Example 654], the IC50 lay within 100 to 500 nM. The figure for `COc1cc(C(=O)O)ccc1NS(=O)(=O)c1ccc(-c2ccc(-c3ccc(C)cc3)cc2)s1` [Example 199] is 100 to 500 nM; for `COc1cc(C(=O)O)c(F)cc1NS(=O)(=O)c1csc(-c2ccc(-c3ccc(C45CC6C[C@H](C4)C[C@H](C6)C5)cc3)c(OC(F)(F)F)c2)n1` [Example 750] it is 100 to 500 nM; for `COc1cc(C(=O)O)ccc1NS(=O)(=O)c1csc(N2CCN(c3ccc(Br)cc3)CC2)n1` [Example 285] it is 1000 to 100000 nM. The figure for `COc1cc(C(=O)O)c(F)cc1NS(=O)(=O)c1csc(-c2ccc(C3=CCC(C)(C)CC3)nc2)n1` [Example 551] is 100 to 500 nM. With `COc1cc(C(=O)O)c(F)cc1NS(=O)(=O)c1csc(-c2ccc([C@H]3CC[C@@H](C(C)C)CC3)c(C)c2F)n1` [Example 807], the IC50 is under 100 nM. For `COc1cc(C(=O)O)c(F)cc1NS(=O)(=O)c1csc(-c2ccc([C@H]3CC[C@H](C(C)(C)C)CC3)c(OC(C)C)c2F)n1` [Example 598] the value was 100 to 500 nM. For `COc1c(NS(=O)(=O)c2csc(-c3ccc([C@H]4CC[C@H](C(F)(F)F)CC4)cc3)n2)ccc2c(O)cccc12` [Example 649] the value was 1000 to 100000 nM; for `COc1cc(C(=O)O)c(F)cc1NS(=O)(=O)c1csc(-c2ccc(C3=CCC(C)(C)CC3)c(OC(C)C)c2F)n1` [Example 564], 100 to 500 nM; for `COc1cc(C(=O)O)c(F)cc1NS(=O)(=O)c1csc(-c2ccc([C@H]3CC[C@@H](C(C)C)CC3)c(OC)c2F)n1` [Example 802], under 100 nM. For `CCCCC[C@H]1CC[C@H](c2ccc(-c3ncc(S(=O)(=O)Nc4cc(F)c(C(=O)O)cc4OC)s3)cc2)CC1` [Example 628] the value was 100 to 500 nM; for `COc1cc(C(=O)NO)ccc1NS(=O)(=O)c1cnc(-c2ccc(F)cc2)s1` [Example 69, 4-((2-(4-fluorophenyl)thiazole)-5-sulfonamido)-N-hydroxy-3-methoxybenzamide], 1000 to 100000 nM. On to `COc1cc(C(=O)O)c(F)cc1NS(=O)(=O)c1ccn(-c2ccc(C3CCC(C)(C)CC3)cc2)n1` [Example 690], for which the IC50 lay in the range of 100 to 500 nM.

On to `CNc1cc(C(=O)O)ccc1NS(=O)(=O)c1csc(-c2ccc(C3CCC(C)(C)CC3)cc2C(F)(F)F)n1` [Example 705], for which the IC50 was in the range of 1000 to 100000 nM.

As for `O=C(O)C1CCC(NS(=O)(=O)c2cnc(-c3ccc(F)cc3)s2)CC1` (stereo not drawn) [Example 66], the concentration for half-maximal inhibition (IC50) is over 100000 nM. For `COc1cc(C(=O)O)c(F)cc1NS(=O)(=O)c1ccn(-c2ccc(C3CCCCC3)cc2)n1` [Example 689] the value was 100 to 500 nM; for `CC[C@H]1CC[C@H](c2ccc(-c3nc(S(=O)(=O)Nc4ccc5c(O)cccc5c4OC)cs3)cc2)CC1` [Example 648], 1000 to 100000 nM; for `COc1cc(C(=O)O)ccc1NS(=O)(=O)c1csc(-c2ccc(C3CCCC(C)(C)C3)cc2)n1` (stereo not drawn) [Example 368], 100 to 500 nM. The figure for `COc1cc(C(=O)O)ccc1NS(=O)(=O)c1csc(-c2ccccc2)n1` [Example 102] is under 100 nM. The figure for `COc1cc(C(=O)O)ccc1NS(=O)(=O)c1coc(-c2ccccc2)n1` [Example 375] is under 100 nM; for `O=C(O)c1ccc(NS(=O)(=O)c2ccc3ccc(S(=O)(=O)Nc4ccc(C(=O)O)cc4O)cc3c2)c(O)c1` [Example 171] it is under 100 nM; for `COc1cc(C(=O)O)c(F)cc1NS(=O)(=O)c1csc(-c2ccc([C@H]3CC[C@H](C(C)C)CC3)c(OC)c2F)n1` [Example 803] it is under 100 nM.

As to `COc1cc(C(=O)O)ccc1NS(=O)(=O)c1csc(C#CC2CCCC2)n1` [Example 217], the IC50 was under 100 nM.

In the case of `COc1cc(C(=O)O)c(F)cc1NS(=O)(=O)c1csc(-c2ccc(C3CCC(C)(C)CC3)c(F)c2OC)n1` [Example 549], the concentration for half-maximal inhibition (IC50) is 100 to 500 nM.

`COc1cc(C(=O)O)c(F)cc1NS(=O)(=O)c1csc(-c2ccc(C3=CCC(C(C)C)CC3)cc2C(F)(F)F)n1` (stereo not drawn) [Example 741]: the IC50 was under 100 nM. The figure for `COc1cc(C(=O)O)ccc1NS(=O)(=O)c1cnc(-c2ccc(C3CCC(C)(C)CC3)cc2)s1` [Example 453] is 100 to 500 nM; for `COc1cccc(-c2nc(S(=O)(=O)Nc3ccc(C(=O)O)cc3OC)cs2)c1` [Example 140] it is 500 to 1000 nM. The figure for `O=C(O)c1cc(F)c(NS(=O)(=O)c2cnc(-c3ccc(F)cc3)s2)c(F)c1` [Example 46] is 100 to 500 nM; for `COc1cc(C(=O)O)c(F)cc1NS(=O)(=O)c1csc(-c2ccc(C3=CCC(C)(C)CC3)c3[nH]ncc23)n1` [Example 538] it is 100 to 500 nM; for `COc1cc(C(=O)O)ccc1NS(=O)(=O)N1CCN(c2ccc(OC(F)(F)F)cc2)C(=O)C1` [Example 317] it is 1000 to 100000 nM. The figure for `COCCOc1c(C2=CCC(C)(C)CC2)ccc(-c2nc(S(=O)(=O)Nc3cc(F)c(C(=O)O)cc3OC)cs2)c1F` [Example 577] is 100 to 500 nM; for `COc1cc(C(=O)O)c(F)cc1NS(=O)(=O)c1csc(-c2ccc(C3CCC(C)(C)CC3)cc2C(C)C)n1` [Example 560] it is 100 to 500 nM; for `COc1cc(C(=O)O)ccc1NS(=O)(=O)c1cnc(-c2ccccc2)o1` [Example 81] it is 100 to 500 nM.

In the case of `O=C(O)c1cc2c(cc1F)N(S(=O)(=O)c1ccc(F)cc1)CCC2` [Example 14, 7-fluoro-1-((4-fluorophenyl)sulfonyl)-1,2,3,4-tetrahydroquinoline-6-carboxylic acid], the IC50 was in the range of 1000 to 100000 nM.

For `O=C(O)c1ccc(NS(=O)(=O)c2cnc(-c3ccc(F)cc3)s2)c(OC2CC2)c1` [Example 43], the IC50 was 1000 to 100000 nM. For `COc1cc(C(=O)O)ccc1NS(=O)(=O)c1csc(-c2ccn(C)n2)n1` [Example 101] the value was 1000 to 100000 nM.

In the case of `COc1cc(C(=O)O)ccc1NS(=O)(=O)c1csc(-c2ccccc2OC)n1` [Example 141], the concentration for half-maximal inhibition (IC50) was in the range of 500 to 1000 nM. For `COc1cc(C(=O)O)c(F)cc1NS(=O)(=O)c1csc(-c2ccc(C3=CCC(C)(C)CC3)cc2C(C)C)n1` [Example 557] the value was 100 to 500 nM; for `COc1cc(C(=O)O)c(C2=CCCC2)cc1NS(=O)(=O)c1csc(-c2ccc(C3CCC(C)(C)CC3)cc2C(F)(F)F)n1` [Example 698], 1000 to 100000 nM. For `Cc1cnn(-c2ccc(S(=O)(=O)Nc3ccc(C(=O)O)cc3)cc2F)c1` [Example 54] the value was 1000 to 100000 nM; for `COc1cc(C(=O)O)ccc1NS(=O)(=O)c1csc(C#Cc2ccccc2Cl)n1` [Example 196], under 100 nM. The figure for `COC(=O)c1ccc(C#Cc2nc(S(=O)(=O)Nc3ccc(C(=O)O)cc3OC)cs2)cc1OC(F)(F)F` [Example 398] is under 100 nM. In the case of `O=C(O)c1ccc(NS(=O)(=O)c2cnc(-c3ccc(F)cc3)s2)cc1` [Example 60, 4-((2-(4-fluorophenyl)thiazole)-5-sulfonamido)benzoic acid], the IC50 fell in the range of 500 to 1000 nM. The figure for `COc1cc(C(=O)O)ccc1NS(=O)(=O)c1cccc(-c2ccc(F)cc2)c1` [Example 319] is 1000 to 100000 nM.

In the case of `CCC[C@H]1CC[C@H](C2CC=C(c3nc(S(=O)(=O)Nc4cc(F)c(C(=O)O)cc4OC)cs3)CC2)CC1` (stereo partly drawn) [Example 779], the IC50 lay within 100 to 500 nM.

For `COc1cc(P(=O)(O)O)ccc1NS(=O)(=O)c1csc(-c2ccc(C3CCCCC3)cc2)n1` [Example 484, (4-((2-(4-cyclohexylphenyl)thiazole)-4-sulfonamido)-3-methoxyphenyl)phosphonic acid], the IC50 fell in the range of 1000 to 100000 nM.

Turning to `COc1cc(C(=O)O)c(F)cc1NS(=O)(=O)c1cnn(-c2ccc([C@H]3CC[C@@H](C(C)C)CC3)cc2)c1` [Example 687], the IC50 lay within 100 to 500 nM. For `COc1cc(C(=O)O)ccc1NS(=O)(=O)c1csc(C#Cc2cccc(OC(F)(F)F)c2)n1` [Example 239] the value was under 100 nM. The figure for `COc1cc(C(=O)O)c(F)cc1NS(=O)(=O)c1csc(-c2ccc(-c3cncc(F)c3)cc2)n1` [Example 655] is 100 to 500 nM; for `COc1cc(C(=O)O)ccc1NS(=O)(=O)c1csc(-c2ccc(C3CCC(C(F)(F)F)CC3)cc2)n1` (stereo not drawn) [Example 348] it is under 100 nM; for `COc1cc(C(=O)O)ccc1NS(=O)(=O)c1ccc(C#CC2CCCC2)c(F)c1` [Example 335, 4-((4-(cyclopentylethynyl)-3-fluorophenyl)sulfonamido)-3-methoxybenzoic acid] it is under 100 nM.
